Experimental data taken from the supplement of paper PMC10307832.

How the values were obtained:
Experiment in all cases: relative viability (nuclei count vs DMSO), 5 days (fraction); higher = more cells survive
[1] = compound: C1CN(CCC1C(C2=CC3=C(C=C2)OCO3)(C4=CC5=C(C=C4)OCO5)O)C(=O)OC6=CC=C(C=C6)[N+](=O)[O-] [JZL-184]
Summary of the method: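 Lung cancer cell lines in 1536-well plates were kept overnight at 37 °C, then pinned with five library-drug doses (not always all listed) spaced by √10 on vehicle-anchored plates. After 5 days without medium change, cells were fixed, permeabilised and Hoechst-stained in one step, imaged at 4×, and nuclei were counted with MetaXpress. Viability is treated-well nuclei divided by vehicle-well nuclei, taken as the median over plates. Plates passed only with control CV below 25% and at least one doubling.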

[2] = compound: C1CN(CCC1C(C2=CC3=C(C=C2)OCO3)(C4=CC5=C(C=C4)OCO5)O)C(=O)OC6=CC=C(C=C6)[N+](=O)[O-] [JZL-184] + CC1(C)CCC(c2ccc(Cl)cc2)=C(CN2CCN(c3ccc(C(=O)NS(=O)(=O)c4ccc(N[C@H](CCN5CCOCC5)CSc5ccccc5)c(S(=O)(=O)C(F)(F)F)c4)cc3)CC2)C1 [Navitoclax] (partner 0.5 µM)
Summary of the method: (§1)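 Lung cancer cell lines in 1536-well plates were dosed by pin tool the day after seeding, either with one drug alone or with a fixed anchor-drug dose plus five library-drug doses (not always all listed) in √10 steps. After 5 days, cells were fixed and their nuclei stained in one step (final 0.05% Triton X-100, 1% formaldehyde, 1 ug/ml Hoechst), then counted on 4× images. Relative viability is the nuclei count in treated wells divided by that in vehicle wells. Values are medians of duplicate plates.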

[3] = compound: C1CN(CCC1C(C2=CC3=C(C=C2)OCO3)(C4=CC5=C(C=C4)OCO5)O)C(=O)OC6=CC=C(C=C6)[N+](=O)[O-] [JZL-184] + C[C@]1(O)C[C@@H](c2nc(-c3ccc4ccc(-c5ccccc5)nc4c3)c3c(N)nccn32)C1 [Linsitinib] (partner 1 µM)
Summary of the method: as §1

[4] = compound: C1CN(CCC1C(C2=CC3=C(C=C2)OCO3)(C4=CC5=C(C=C4)OCO5)O)C(=O)OC6=CC=C(C=C6)[N+](=O)[O-] [JZL-184] + CC(C)C[C@H](NC(=O)[C@H](Cc1ccccc1)NC(=O)c1cnccn1)B(O)O [Bortezomib] (partner 0.002 µM)
Summary of the method: as §1

[5] = compound: C1CN(CCC1C(C2=CC3=C(C=C2)OCO3)(C4=CC5=C(C=C4)OCO5)O)C(=O)OC6=CC=C(C=C6)[N+](=O)[O-] [JZL-184] + C[C@@H](Oc1cc(-c2cnn(C3CCNCC3)c2)cnc1N)c1c(Cl)ccc(F)c1Cl [Crizotinib] (partner 1 µM)
Summary of the method: as §1

[6] = compound: C1CN(CCC1C(C2=CC3=C(C=C2)OCO3)(C4=CC5=C(C=C4)OCO5)O)C(=O)OC6=CC=C(C=C6)[N+](=O)[O-] [JZL-184] + CS(=O)(=O)N1CCN(Cc2cc3nc(-c4cccc5[nH]ncc45)nc(N4CCOCC4)c3s2)CC1 [Pictilisib] (partner 1 µM)
Summary of the method: as §1

[7] = compound: C1CN(CCC1C(C2=CC3=C(C=C2)OCO3)(C4=CC5=C(C=C4)OCO5)O)C(=O)OC6=CC=C(C=C6)[N+](=O)[O-] [JZL-184] + CS(=O)(=O)CCNCc1ccc(-c2ccc3ncnc(Nc4ccc(OCc5cccc(F)c5)c(Cl)c4)c3c2)o1 [Lapatinib] (partner 2 µM)
Summary of the method: as §1

[8] = compound: C1CN(CCC1C(C2=CC3=C(C=C2)OCO3)(C4=CC5=C(C=C4)OCO5)O)C(=O)OC6=CC=C(C=C6)[N+](=O)[O-] [JZL-184] + COc1cc2c(Oc3ccc(NC(=O)C4(C(=O)Nc5ccc(F)cc5)CC4)cc3F)ccnc2cc1OCCCN1CCOCC1 [Foretinib] (partner 0.25 µM)
Summary of the method: as §1

[9] = compound: C1CN(CCC1C(C2=CC3=C(C=C2)OCO3)(C4=CC5=C(C=C4)OCO5)O)C(=O)OC6=CC=C(C=C6)[N+](=O)[O-] [JZL-184] + O=C(c1cc(Cc2n[nH]c(=O)c3ccccc23)ccc1F)N1CCN(C(=O)C2CC2)CC1 [Olaparib] (partner 8 µM)
Summary of the method: as §1

[10] = compound: C1CN(CCC1C(C2=CC3=C(C=C2)OCO3)(C4=CC5=C(C=C4)OCO5)O)C(=O)OC6=CC=C(C=C6)[N+](=O)[O-] [JZL-184] + Cc1nc(NC(=O)N2CCC[C@H]2C(N)=O)sc1-c1ccnc(C(C)(C)C(F)(F)F)c1 [Alpelisib] (partner 2 µM)
Summary of the method: as §1

[11] = compound: C1CN(CCC1C(C2=CC3=C(C=C2)OCO3)(C4=CC5=C(C=C4)OCO5)O)C(=O)OC6=CC=C(C=C6)[N+](=O)[O-] [JZL-184] + Cc1nc(Nc2ncc(C(=O)Nc3c(C)cccc3Cl)s2)cc(N2CCN(CCO)CC2)n1 [Dasatinib] (partner 0.075 µM)
Summary of the method: as §1

[12] = compound: C1CN(CCC1C(C2=CC3=C(C=C2)OCO3)(C4=CC5=C(C=C4)OCO5)O)C(=O)OC6=CC=C(C=C6)[N+](=O)[O-] [JZL-184] + COc1cccc2cc(-c3nc([C@H]4CC[C@H](C(=O)O)CC4)n4ncnc(N)c34)[nH]c12 [OSI-027] (partner 0.5 µM)
Summary of the method: as §1

[13] = compound: C1CN(CCC1C(C2=CC3=C(C=C2)OCO3)(C4=CC5=C(C=C4)OCO5)O)C(=O)OC6=CC=C(C=C6)[N+](=O)[O-] [JZL-184] + N=C(N)NC(=N)NCCc1ccccc1 [Phenformin] (partner 250 µM)
Summary of the method: as §1

[14] = compound: C1CN(CCC1C(C2=CC3=C(C=C2)OCO3)(C4=CC5=C(C=C4)OCO5)O)C(=O)OC6=CC=C(C=C6)[N+](=O)[O-] [JZL-184] + Cc1cc(Nc2cc(N3CCN(C)CC3)nc(Sc3ccc(NC(=O)C4CC4)cc3)n2)n[nH]1 [Tozasertib] (partner 0.1 µM)
Summary of the method: as §1

[15] = compound: C1CN(CCC1C(C2=CC3=C(C=C2)OCO3)(C4=CC5=C(C=C4)OCO5)O)C(=O)OC6=CC=C(C=C6)[N+](=O)[O-] [JZL-184] + CCNC(=O)c1noc(-c2cc(C(C)C)c(O)cc2O)c1-c1ccc(CN2CCOCC2)cc1 [Luminespib] (partner 0.01 µM)
Summary of the method: as §1

## NCI-H1299
[1]; 0.04 µM
  relative viability: 1.06
[1]; 0.4 µM
  relative viability: 1
[1]; 1.265 µM
  relative viability: 1.05
[1]; 4 µM
  relative viability: 0.977
[2]; first compound 0.04 µM
  relative viability: 1.06
[2]; first compound 0.4 µM
  relative viability: 1.05
[2]; first compound 1.265 µM
  relative viability: 1.06
[2]; first compound 4 µM
  relative viability: 1.05
[3]; first compound 0.04 µM
  relative viability: 1.16
[3]; first compound 0.4 µM
  relative viability: 1.01
[3]; first compound 1.265 µM
  relative viability: 0.95
[3]; first compound 4 µM
  relative viability: 0.974
[4]; first compound 0.04 µM
  relative viability: 1.04
[4]; first compound 0.4 µM
  relative viability: 0.997
[4]; first compound 1.265 µM
  relative viability: 1.04
[4]; first compound 4 µM
  relative viability: 0.979
[5]; first compound 0.04 µM
  relative viability: 0.982
[5]; first compound 0.4 µM
  relative viability: 0.944
[5]; first compound 1.265 µM
  relative viability: 0.915
[5]; first compound 4 µM
  relative viability: 0.884
[6]; first compound 0.04 µM
  relative viability: 0.922
[6]; first compound 0.4 µM
  relative viability: 0.82
[6]; first compound 1.265 µM
  relative viability: 0.779
[6]; first compound 4 µM
  relative viability: 0.655
[7]; first compound 0.04 µM
  relative viability: 0.954
[7]; first compound 0.4 µM
  relative viability: 0.924
[7]; first compound 1.265 µM
  relative viability: 0.969
[7]; first compound 4 µM
  relative viability: 0.912
[8]; first compound 0.04 µM
  relative viability: 1.11
[8]; first compound 0.4 µM
  relative viability: 1.06
[8]; first compound 1.265 µM
  relative viability: 1.14
[8]; first compound 4 µM
  relative viability: 1.04
[9]; first compound 0.04 µM
  relative viability: 1.01
[9]; first compound 0.4 µM
  relative viability: 0.937
[9]; first compound 1.265 µM
  relative viability: 0.936
[9]; first compound 4 µM
  relative viability: 0.911
[10]; first compound 0.04 µM
  relative viability: 1.14
[10]; first compound 0.4 µM
  relative viability: 1.01
[10]; first compound 1.265 µM
  relative viability: 1.08
[10]; first compound 4 µM
  relative viability: 1.04

## NCI-H1623
[1]; 0.04 µM
  relative viability: 0.941
[1]; 0.4 µM
  relative viability: 0.988
[1]; 1.265 µM
  relative viability: 1
[1]; 4 µM
  relative viability: 0.937
[11]; first compound 0.04 µM
  relative viability: 0.512
[11]; first compound 0.4 µM
  relative viability: 0.561
[11]; first compound 1.265 µM
  relative viability: 0.573
[11]; first compound 4 µM
  relative viability: 0.47
[12]; first compound 0.04 µM
  relative viability: 0.463
[12]; first compound 0.4 µM
  relative viability: 0.438
[12]; first compound 1.265 µM
  relative viability: 0.464
[12]; first compound 4 µM
  relative viability: 0.446
[13]; first compound 0.04 µM
  relative viability: 0.566
[13]; first compound 0.4 µM
  relative viability: 0.551
[13]; first compound 1.265 µM
  relative viability: 0.595
[13]; first compound 4 µM
  relative viability: 0.565
[8]; first compound 0.04 µM
  relative viability: 0.904
[8]; first compound 0.4 µM
  relative viability: 0.818
[8]; first compound 1.265 µM
  relative viability: 0.944
[8]; first compound 4 µM
  relative viability: 0.807
[14]; first compound 0.04 µM
  relative viability: 0.453
[14]; first compound 0.4 µM
  relative viability: 0.442
[14]; first compound 1.265 µM
  relative viability: 0.442
[14]; first compound 4 µM
  relative viability: 0.482
[15]; first compound 0.04 µM
  relative viability: 0.389
[15]; first compound 0.4 µM
  relative viability: 0.411
[15]; first compound 1.265 µM
  relative viability: 0.626
[15]; first compound 4 µM
  relative viability: 0.585
